Laboratory results reported in BindingDB's records for patent US20240376090 (Arena Pharmaceuticals, 2024).

Molecular target: 5-hydroxytryptamine receptor 2A (Homo sapiens, UniProt P28223)
Assay: Radioligand Binding Assay Protocol
Procedure: Competition binding experiments consisted of addition of 5 μL of serially diluted test compound, 50 μL of radioligand stock diluted in Assay Buffer (20 mM HEPES, pH 7.4, 10 mM MgCl2), and 145 μL of diluted membrane expressing the receptor of interest to 96-well microtiter plates, which were then incubated for one hour at room temperature. Assay incubations were terminated by rapid filtration through Perkin Elmer GF/C filtration plates under vacuum pressure using a 96-well Packard filtration apparatus, followed by washing the filter plates several times with ice cold Assay Buffer. Plates were then dried at 45° C. for a minimum of four hours. Finally, 25 μL of BetaScint scintillation cocktail was added to each well and the plates were counted in a Packard TopCount scintillation counter. In each competition study, test compounds were assayed at 10 concentrations with three replicates at each test concentration.

Sequence of 5-hydroxytryptamine receptor 2A (P28223 whole entry): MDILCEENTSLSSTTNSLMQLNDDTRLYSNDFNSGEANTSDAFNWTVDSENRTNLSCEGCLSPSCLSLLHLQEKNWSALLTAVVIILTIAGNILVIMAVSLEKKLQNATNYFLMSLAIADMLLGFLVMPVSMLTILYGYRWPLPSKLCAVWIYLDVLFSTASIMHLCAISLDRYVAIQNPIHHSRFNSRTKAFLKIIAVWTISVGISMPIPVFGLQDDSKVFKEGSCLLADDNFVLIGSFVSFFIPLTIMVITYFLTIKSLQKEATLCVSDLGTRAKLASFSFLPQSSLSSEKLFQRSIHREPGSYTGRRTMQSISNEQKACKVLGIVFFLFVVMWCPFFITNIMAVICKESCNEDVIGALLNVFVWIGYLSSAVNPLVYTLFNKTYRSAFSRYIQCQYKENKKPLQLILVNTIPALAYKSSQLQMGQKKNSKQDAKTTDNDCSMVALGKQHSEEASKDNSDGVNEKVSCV

## CC/C(=C(/C)ON)c1cc(NC(=O)C[C@H]2CCOC2)ccc1OC[C@H]1CCCCN1 [US20240376090, Compound 202]
  Ki: 9.81 nM
